Data published in ChEMBL document CHEMBL1147565, “Imidazo[1,2-a]pyridines. Part 2: SAR and optimisation of a potent and selective class of cyclin-dependent kinase inhibitors” (Bioorg Med Chem Lett, 2004).

Experiments:
[1] = molecular target: Cyclin-dependent kinase 2 (Homo sapiens, UniProt P24941); assay: Inhibitory concentration against cyclin-dependent kinase 2
[2] = system: MCF7; assay: Inhibitory activity against BrdU incorporation to MCF-7 cell line following 3 day exposure to compound; assay type: functional, cell-based; conditions: Homo sapiens, MCF7, 72 h
[3] = molecular target: Cyclin-dependent kinase 1 (Homo sapiens, UniProt P06493); assay: Inhibition of Cyclin-dependent kinase 1
[4] = molecular target: Cyclin-dependent kinase 4 (Homo sapiens, UniProt P11802); assay: Inhibition of Cyclin-dependent kinase 4
[5] = system: MCF7; assay: Inhibition of cyclin-dependent kinase phosphorylation of S249-T252 of Rb protein in MCF-7 cells; assay type: functional, cell-based; conditions: Homo sapiens

Cyclin-dependent kinase 1, sequence (P06493 whole entry): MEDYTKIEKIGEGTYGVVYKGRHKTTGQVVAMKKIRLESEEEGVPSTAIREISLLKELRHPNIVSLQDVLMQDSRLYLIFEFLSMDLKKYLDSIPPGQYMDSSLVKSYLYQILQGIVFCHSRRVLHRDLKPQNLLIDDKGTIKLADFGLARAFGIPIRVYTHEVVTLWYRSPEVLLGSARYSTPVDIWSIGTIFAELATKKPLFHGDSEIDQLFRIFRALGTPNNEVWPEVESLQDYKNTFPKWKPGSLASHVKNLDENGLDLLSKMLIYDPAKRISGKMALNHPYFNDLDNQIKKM
Cyclin-dependent kinase 4, sequence (P11802 whole entry): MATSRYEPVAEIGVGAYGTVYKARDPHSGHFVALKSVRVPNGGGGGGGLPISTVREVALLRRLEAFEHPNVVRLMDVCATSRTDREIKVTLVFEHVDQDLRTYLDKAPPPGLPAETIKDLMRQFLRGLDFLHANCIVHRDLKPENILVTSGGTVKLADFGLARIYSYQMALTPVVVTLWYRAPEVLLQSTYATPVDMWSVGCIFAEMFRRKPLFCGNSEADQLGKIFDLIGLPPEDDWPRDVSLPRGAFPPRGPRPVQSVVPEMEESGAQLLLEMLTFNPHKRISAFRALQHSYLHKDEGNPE

Structure (SMILES) | IC50 [1] [nM] | further results
CN(C)CCCNS(=O)(=O)c1ccc(Nc2nccc(-c3cnc4ccccn34)n2)cc1 | < 3 | IC50 [2]: 70 nM
COCCNS(=O)(=O)c1ccc(Nc2ncc(Sc3ccccc3)c(-c3cnc4ccccn34)n2)cc1 | > 10000 | 
CN(C)CCNS(=O)(=O)c1ccc(Nc2nccc(-c3cnc4ccccn34)n2)cc1 | 5 | IC50 [3]: 15 nM; IC50 [4]: 260 nM; IC50 [5]: 50 nM; IC50 [2]: 70 nM
COCCCNS(=O)(=O)c1ccc(Nc2nccc(-c3cnc4ccccn34)n2)cc1 | 4 | IC50 [3]: 6 nM; IC50 [4]: 3100 nM; IC50 [5]: 400 nM; IC50 [2]: 600 nM
COCCNS(=O)(=O)c1ccc(Nc2nccc(-c3cnc4ccc(C#N)cn34)n2)cc1 | < 3 | 
CNS(=O)(=O)c1ccc(Nc2nccc(-c3cnc4ccccn34)n2)cc1 | < 3 | IC50 [2]: 260 nM
c1ccc(Nc2nccc(-c3cnc4ccccn34)n2)cc1 | < 3 | 
CN(C)CCCN(C)S(=O)(=O)c1ccc(Nc2nccc(-c3cnc4ccccn34)n2)cc1 | 5 | IC50 [2]: 440 nM
COCCNS(=O)(=O)c1ccc(Nc2nccc(-c3cnc4ccccn34)n2)cc1 | 12 | IC50 [2]: 390 nM
Cc1nc2ccccn2c1-c1ccnc(Nc2ccccc2)n1 | 210 | 

Second part, led by results:

IC50 [1] [nM] | Structure (SMILES) | further results
< 3 | COCCNS(=O)(=O)c1ccc(Nc2nccc(-c3cnc4ccc(Br)cn34)n2)cc1 | 
150 | Cc1nc2ccccn2c1-c1ccnc(Nc2cccc(Cl)c2)n1 | 
8800 | Cc1nc2ccccn2c1-c1ccnc(Nc2ccccc2Cl)n1 | 
38 | Cc1nc2ccccn2c1-c1ccnc(Nc2ccc(S(N)(=O)=O)cc2)n1 | 
< 3 | COCCNS(=O)(=O)c1ccc(Nc2ncc(Br)c(-c3cnc4ccccn34)n2)cc1 | 
680 | Clc1cccc(Nc2nccc(-n3cnc4ccccc43)n2)c1 | 
< 3 | CCSc1ccc2ncc(-c3ccnc(Nc4ccc(S(=O)(=O)NCCOC)cc4)n3)n2c1 | 
< 3 | NS(=O)(=O)c1ccc(Nc2nccc(-c3cnc4ccccn34)n2)cc1 | 
620 | Cc1nc2ccccn2c1-c1ccnc(Nc2ccc(Cl)cc2)n1 | 
< 3 | COCCNS(=O)(=O)c1ccc(Nc2ncc(Cl)c(-c3cnc4ccccn34)n2)cc1 | 
16 | COCCNS(=O)(=O)c1ccc(Nc2nccc(-c3cnc4ccc(Sc5ccccc5)cn34)n2)cc1 | 
5 | Clc1cccc(Nc2nccc(-c3cnc4ccccn34)n2)c1 | 
